Experimental data from patent US20240217951A1, “PCSK9 INHIBITORS AND METHODS OF USE THEREOF” (AstraZeneca AB, priority 2022, published 2024).

Tests used:
[1] = molecular target: T1, potassium ion channel hERG (human Ether-á-go-go-Related Gene) (Homo sapiens, UniProt Q12809); test: Assay 5 - hERG assay (SyncroPatch 384PE patch clamp, CHO cells); format: cell-based; details: geometric mean; CHO cells over-expressing hERG; read-out: Assay 5 (hERG Hu CHO IF EPh CR-Syncro) GMean IC50
T1 construct: expressed in transfected cells; host or cells: Chinese hamster ovary K1 (CHO)
T1 sequence (Q12809 whole entry): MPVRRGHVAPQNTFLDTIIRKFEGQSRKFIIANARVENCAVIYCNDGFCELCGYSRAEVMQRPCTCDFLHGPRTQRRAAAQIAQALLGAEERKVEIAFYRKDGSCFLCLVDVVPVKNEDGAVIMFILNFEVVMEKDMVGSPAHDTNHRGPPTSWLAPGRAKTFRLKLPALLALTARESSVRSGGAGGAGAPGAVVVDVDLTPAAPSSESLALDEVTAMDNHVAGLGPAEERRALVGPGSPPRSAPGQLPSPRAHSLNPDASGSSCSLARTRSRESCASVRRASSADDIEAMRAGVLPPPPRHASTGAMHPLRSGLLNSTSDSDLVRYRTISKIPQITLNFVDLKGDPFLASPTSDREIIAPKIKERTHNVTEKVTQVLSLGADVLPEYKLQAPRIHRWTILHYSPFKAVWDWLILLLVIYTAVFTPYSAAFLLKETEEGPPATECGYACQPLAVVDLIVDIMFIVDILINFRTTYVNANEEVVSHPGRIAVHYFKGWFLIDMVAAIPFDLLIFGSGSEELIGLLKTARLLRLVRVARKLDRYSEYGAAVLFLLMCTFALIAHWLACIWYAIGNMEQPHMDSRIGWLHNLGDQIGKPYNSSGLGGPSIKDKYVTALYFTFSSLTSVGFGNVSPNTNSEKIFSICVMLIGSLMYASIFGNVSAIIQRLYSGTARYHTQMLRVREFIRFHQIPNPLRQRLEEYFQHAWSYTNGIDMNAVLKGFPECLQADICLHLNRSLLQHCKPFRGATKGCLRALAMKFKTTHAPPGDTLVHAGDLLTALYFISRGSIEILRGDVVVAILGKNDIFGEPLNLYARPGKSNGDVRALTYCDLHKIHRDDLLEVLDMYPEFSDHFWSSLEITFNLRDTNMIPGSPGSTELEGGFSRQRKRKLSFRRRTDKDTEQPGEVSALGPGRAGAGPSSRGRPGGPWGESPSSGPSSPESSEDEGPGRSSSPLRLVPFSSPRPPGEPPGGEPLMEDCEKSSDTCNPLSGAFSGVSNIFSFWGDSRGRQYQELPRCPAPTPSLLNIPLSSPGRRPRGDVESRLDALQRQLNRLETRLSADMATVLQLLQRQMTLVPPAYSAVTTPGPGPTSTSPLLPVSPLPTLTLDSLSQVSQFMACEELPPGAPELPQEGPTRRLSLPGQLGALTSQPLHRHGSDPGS
Method in brief: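 Automated high-throughput patch clamp on CHO-K1 cells overexpressing hERG at room temperature, KF/KCl internal with escin, NMDG-containing external at pH 7.4. Six-point cumulative compound addition, 0.33% DMSO final; wells kept only with seal >30 MΩ, Z′ >0.4 and current >0.2 nA.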

[2] = molecular target: T2, human PCSK9 (Homo sapiens, UniProt Q8NBP7); test: Assay 2 - Biophysical human PCSK9 assay (SPR, Biacore); format: binding; details: geometric mean; SPR at 30° C; read-out: Assay 2 (PCSK9 BIAcore DBA CR) GMean Kd
T2 construct: biotinylated human PCSK9 (31-692)-Avi-His6; His6 (C)
T2 sequence (Q8NBP7 31-692): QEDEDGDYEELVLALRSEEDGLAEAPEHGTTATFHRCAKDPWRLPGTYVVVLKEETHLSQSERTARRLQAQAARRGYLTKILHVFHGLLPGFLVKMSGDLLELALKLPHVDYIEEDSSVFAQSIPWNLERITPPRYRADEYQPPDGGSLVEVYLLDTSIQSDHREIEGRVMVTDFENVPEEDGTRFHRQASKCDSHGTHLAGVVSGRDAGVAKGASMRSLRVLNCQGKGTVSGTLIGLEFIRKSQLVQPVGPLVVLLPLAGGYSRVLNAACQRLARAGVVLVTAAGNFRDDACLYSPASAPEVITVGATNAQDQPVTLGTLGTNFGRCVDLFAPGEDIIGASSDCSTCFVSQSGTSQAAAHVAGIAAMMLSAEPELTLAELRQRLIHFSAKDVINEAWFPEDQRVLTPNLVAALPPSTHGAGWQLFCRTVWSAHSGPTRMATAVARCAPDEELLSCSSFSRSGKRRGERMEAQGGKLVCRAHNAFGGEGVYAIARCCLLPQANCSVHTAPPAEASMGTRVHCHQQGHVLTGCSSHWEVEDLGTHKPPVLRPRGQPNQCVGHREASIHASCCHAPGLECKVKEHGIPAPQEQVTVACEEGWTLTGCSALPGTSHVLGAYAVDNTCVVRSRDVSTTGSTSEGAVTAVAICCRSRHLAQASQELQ

Structure (SMILES) | IC50 [1] | Kd [2]
Cc1cccn(-c2ccc(N[C@H]3CC[C@H](Nc4cnc(Cl)cn4)C3)nc2)c1=O [Example 24, 6′-(((1S,3S)-3-((5-Chloropyrazin-2-yl)amino)cyclopentyl)amino)-3-methyl-2H-[1,3′-bipyridin]-2-one] | 20500 nM | 4 nM
Cn1c(=O)n(-c2ccc(N[C@H]3CC[C@H](Nc4cnc(Cl)cn4)C3)nc2)c2ccccc21 [Example 27, 1-(6-(((1S,3S)-3-((5-Chloropyrazin-2-yl)amino)cyclopentyl)amino)pyridin-3-yl)-3-methyl-1,3-dihydro-2H-benzo[d]imidazol-2-one] | 6350 nM | 3.1 nM
O=c1ccc(-c2ccc(F)cc2)cn1-c1ccc(N[C@H]2CC[C@H](Nc3cnc(Cl)cn3)C2)nc1 [Example 32, 6′-(((1S,3S)-3-((5-Chloropyrazin-2-yl)amino)cyclopentyl)amino)-5-(4-fluorophenyl)-2H-[1,3′-bipyridin]-2-one] | 3500 nM | 20 nM
O=C(O)c1ccc(=O)n(-c2ccc(N[C@H]3CC[C@H](Nc4cnc(Cl)cn4)C3)nc2)c1 [Example 33, 6′-(((1S,3S)-3-((5-Chloropyrazin-2-yl)amino)cyclopentyl)amino)-2-oxo-2H-[1,3′-bipyridine]-5-carboxylic acid] | > 40000 nM | 13 nM
O=c1ccc2ccccc2n1-c1ccc(N[C@H]2CC[C@H](Nc3cnc(Cl)cn3)C2)nc1 [Example 35, 1-(6-(((1S,3S)-3-((5-Chloropyrazin-2-yl)amino)cyclopentyl)amino)pyridin-3-yl)quinolin-2 (1H)-one] | 4700 nM | 3 nM
COc1cccn(-c2ccc(N[C@H]3CC[C@H](Nc4cnc(C)cn4)C3)nc2)c1=O [Example 36, 3-Methoxy-6′-(((1S,3S)-3-((5-methylpyrazin-2-yl)amino)cyclopentyl)amino)-2H-[1,3′-bipyridin]-2-one] | > 40000 nM | 5.3 nM
Cc1cnc(N[C@H]2CC[C@H](Nc3ccc(-n4c(=O)ccc5cccnc54)cn3)C2)cn1 [Example 37, 1-(6-(((1S,3S)-3-((5-Methylpyrazin-2-yl)amino)cyclopentyl)amino)pyridin-3-yl)-1,8-naphthyridin-2(1 H)-one] | > 40000 nM | 5.5 nM
Cc1cnc(N[C@H]2CC[C@H](Nc3ccc(-n4c(=O)n(C)c5cccnc54)cn3)C2)cn1 [Example 42, 1-Methyl-3-(6-(((1S,3S)-3-((5-methylpyrazin-2-yl)amino)cyclopentyl)amino)pyridin-3-yl)-1,3-dihydro-2H-imidazo[4,5-b]pyridin-2-one] | > 40000 nM | 5 nM
Cc1cnc(N[C@H]2CC[C@H](Nc3ccc(-n4cccc(C)c4=O)cn3)C2)cn1 [Example 44, 3-Methyl-6′-(((1S,3S)-3-((5-methylpyrazin-2-yl)amino)cyclopentyl)amino)-2H-[1,3′-bipyridin]-2-one] | > 40000 nM | 4.5 nM
Cc1cnc(N[C@H]2CC[C@H](Nc3ccc(-n4c(=O)n(C)c5ccccc54)cn3)C2)cn1 [Example 45, 1-Methyl-3-(6-(((1S,3S)-3-((5-methylpyrazin-2-yl)amino)cyclopentyl)amino)pyridin-3-yl)-1,3-dihydro-2H-benzo[d]imidazol-2-one] | 23100 nM | 1.5 nM
Cc1cnc(N[C@H]2CC[C@H](Nc3ccc(-n4c(=O)[nH]c5ccccc54)cn3)C2)cn1 [Example 46, 1-(6-(((1S,3S)-3-((5-Methylpyrazin-2-yl)amino)cyclopentyl)amino)pyridin-3-yl)-1,3-dihydro-2H-benzo[d]imidazol-2-one] | 33000 nM | 4.7 nM
Cc1cnc(N[C@H]2CC[C@H](Nc3ccc(-n4cccc(Cl)c4=O)cn3)C2)cn1 [Example 47, 3-Chloro-6′-(((1S,3S)-3-((5-methylpyrazin-2-yl)amino)cyclopentyl)amino)-2H-[1,3′-bipyridin]-2-one] | > 40000 nM | 1.9 nM
Cn1c(=O)n(-c2ccc(N[C@H]3CC[C@H](Nc4cnc(OC(F)F)cn4)C3)nc2)c2ccccc21 [Example 82, 1-(6-(((1S,3S)-3-((5-(Difluoromethoxy)pyrazin-2-yl)amino)cyclopentyl)amino)pyridin-3-yl)-3-methyl-1,3-dihydro-2H-benzo[d]imidazol-2-one] | 5500 nM | 4.1 nM
COc1cccn(-c2ccc(N[C@H]3CC[C@H](Nc4cnc(OC(F)F)cn4)C3)nc2)c1=O [Example 94, 6′-(((1S,3S)-3-((5-(Difluoromethoxy)pyrazin-2-yl)amino)cyclopentyl)amino)-3-methoxy-2H-[1,3′-bipyridin]-2-one] | 17500 nM | 12 nM
Cc1cnc(N[C@H]2CC[C@H](Nc3ccc(-n4cccc(C#N)c4=O)cn3)C2)cn1 [Example 103, 6′-(((1S,3S)-3-((5-Methylpyrazin-2-yl)amino)cyclopentyl)amino)-2-oxo-2H-[1,3′-bipyridine]-3-carbonitrile] | > 40100 nM | 4.7 nM
COc1cccn(-c2ccc(N[C@H]3CC[C@H](Nc4cnc(C5CC5)cn4)C3)nc2)c1=O [Example 106, 6′-(((1S,3S)-3-((5-Cyclopropylpyrazin-2-yl)amino)cyclopentyl)amino)-3-methoxy-2H-[1,3′-bipyridin]-2-one] | > 40000 nM | 3 nM
COc1ccnn(-c2ccc(N[C@H]3CC[C@H](Nc4cnc(C)cn4)C3)nc2)c1=O [Example 226, 4-Methoxy-2-(6-(((1S,3S)-3-((5-methylpyrazin-2-yl)amino)cyclopentyl)amino)pyridin-3-yl)pyridazin-3 (2H)-one] | > 40100 nM | 5.6 nM
